≈ marks a conversion by molar mass, not a printed value. Like-named read-outs stand apart in the source and are kept apart here.
Key:
[1] = system: MCF7; assay: Cytotoxicity (MTT) under normoxia, MCF7; type: cell-based; conditions: Homo sapiens
Procedure: (§1) The cytotoxicity of the compounds 5a–c and their parent alkaloids was evaluated by the 3-[4,5-dimethylthiazole-2-yl]-2,5-diphenyltetrazolium bromide (MTT) assay against 5 cancerous and 2 non-cancerous cell lines (Table 4).
(§2) The eight cell lines HEK293 (Human embryonic kidney 293), CHO-K1 (Chinese hamster ovary K1), MCF-7 cells (Human breast adenocarcinoma), HCT116 (human colorectal carcinoma), RKO (Human rectal carcinoma), SW480 (human colorectal carcinoma), H460 (Human lung cancer), and MRC5 (Normal human foetal lung fibroblast), were obtained from the ATCC. The cell lines were routinely grown in alpha minimum essential medium (α-MEM) containing 5% foetal calf serum (FCS). The appropriate number of cells (HCT116 = 400 cells/well, H460 cells = 600 cells/well) were seeded into 96-well plates under normoxic or hypoxic conditions. Cells were plated in 100 µL α-MEM containing 10% FCS, 10mM D-Glucose and 0.2mM 2′-deoxycytidine. After incubation for 2 h, the compounds were added at the appropriate concentration and incubated for further 4 h. The cells were then washed three times with drug-free α-MEM (containing 5% FCS and pen/strep). The plates were then incubated for 5 days under normoxic conditions. The cells were stained with sulphorhodamine B to measure total cells. The IC50 was determined by interpolation as the compound concentration reducing staining to 50% of controls on the same plate.

[2] = system: HCT116; assay: Cytotoxicity under normoxia and hypoxia (anaerobic chamber, sulphorhodamine B), HCT116; type: cell-based, human; conditions: for IC50: Homo sapiens, HCT-116, 4 h exposure, 5 days growth
Procedure: (§3) We also checked if the designed prodrugs were able to liberate the active alkaloids in hypoxic tumors by testing them under hypoxic conditions using an anaerobic chamber. The three prodrugs 5a–c and their parent alkaloids as well as the reference compounds PR-104A, the parent alcohol form of the phosphate pre-prodrug PR-104, and evofosfamide were tested using the HCT116 and H460 cell lines under both normoxic and hypoxic conditions (Table 5). The prodrugs were much less cytotoxic than the parent drugs, in agreement with our observations using the other cell lines described above (Figure 6).
(§4) The extent to which a prodrug is deactivated relative to its parent drug under normoxic conditions is defined as the Deactivation Ratio (DR). The DR can be simply calculated as DR = IC50 (prodrug)/IC50 (parent drug).
(§5) The efficacy of prodrug activation under hypoxic conditions can be expressed by the Hypoxia Cytotoxicity Ratio (HCR), which can be calculated for a given prodrug as: HCR = normoxic IC50/hypoxic IC50.
as §2

[3] = BBB-Parallel Artificial Membrane Permeability Assay (BBB-PAMPA); type: in vitro ADME; conditions: mean ± SE
Procedure: The physicochemical properties of the new compounds were evaluated (Table 1). […] Consequently, these derivatives lost their BBB penetrability, as predicted by the BBB-Parallel Artificial Membrane Permeability Assay (BBB-PAMPA), whereas their parent alkaloids had free passage through the BBB.
(§6) Water solubility, logD, and PAMPA-BBB were evaluated using the protocols we previously described.

[4] = system: SW480; assay: Cytotoxicity (MTT) under normoxia, SW480; type: cell-based; conditions: Homo sapiens
Procedure: as §1, §2

[5] = Plasma protein binding (PPB); type: in vitro ADME; conditions: mean ± SE, read-out: PPB (% of Bound Compound) (converted)
Procedure: The physicochemical properties of the new compounds were evaluated (Table 1).

[6] = system: RKO; assay: Cytotoxicity (MTT) under normoxia, RKO; type: cell-based; conditions: Homo sapiens, read-out: IC50 RKO
Procedure: as §1, §2

[7] = system: H460; assay: Cytotoxicity under normoxia and hypoxia (anaerobic chamber, sulphorhodamine B), H460; type: cell-based, human; conditions: for IC50: Homo sapiens, NCI-H460, 4 h exposure, 5 days growth
Procedure: as §3, §4, §5, §2

[8] = system: HEK293; assay: Cytotoxicity (MTT) under normoxia, HEK293; type: cell-based; conditions: Homo sapiens
Procedure: as §1, §2

[9] = LogD determination; type: physicochemical; conditions: mean ± SE
Procedure: as §6

[10] = Solubility in PBS (pH 7.4); type: physicochemical; conditions: aqueous buffer, mean ± SE
Procedure: as §6

[11] = in vitro; conditions: male, Balb/c, pH 7.4
Procedure: Mouse hepatic microsomes were isolated from pooled, perfused livers of Balb/c male mice according to the standard protocol. […] Microsomal incubations were carried out in 96-well plates in 5 aliquots of 40 μL each. […] Control incubations were performed by replacing the NADPH-cofactor system with PBS. The additional control incubations in PBS (with 3.3 mM MgCl2) without added microsomes were carried out in this study. […] The incubations were performed in duplicates. Five time points over 40 min had been analyzed. The reactions were stopped by adding 12 volumes of 90% acetonitrile-water to incubation aliquots, followed by protein sedimentation by centrifuging at 5500 rpm for 3 min. The supernatants were analyzed using LC-MS as mentioned above.

[12] = system: CHO-K1; assay: Cytotoxicity (MTT) under normoxia, CHO-K1; type: cell-based, Chinese hamster; conditions: Cricetulus griseus
Procedure: as §1, §2

[13] = system: HCT116; assay: Cytotoxicity (MTT) under normoxia, HCT116; type: cell-based; conditions: Homo sapiens
Procedure: as §1, §2

[14] = system: MRC5; assay: Cytotoxicity (MTT) under normoxia, MRC5; type: cell-based; conditions: Homo sapiens
Procedure: as §1, §2

[15] = Mouse plasma stability test; type: in vitro ADME; conditions: 37 °C, up to 24 h, read-out: t1/2 (Mouse Plasma) (converted)
Procedure: (§7) Incubations were carried out in 6 aliquots of 70 μL each in duplicates. […] The reactions were stopped by adding 350 μL of acetonitrile with subsequent plasma proteins sedimentation by centrifuging at 5500 rpm for 5 min. Supernatants were analyzed by LC-MS using Shimadzu VP HPLC system including vacuum degasser, gradient pumps, reverse phase column, column oven and autosampler. The HPLC system was coupled with tandem mass spectrometer API 3000 (PE Sciex, Foster City, CA, USA). Both the positive and negative ion modes of the TurboIonSpray ion source were used. The acquisition and analysis of the data were performed using Analyst 1.5.2 software (PE Sciex, API 3000 mass spectrometer, Foster City, CA, USA). The percentage of the test compounds remaining after incubation in plasma and their half-lives (T1/2) were calculated.

[16] = Human plasma stability test; type: in vitro ADME; conditions: 37 °C, up to 24 h, read-out: t1/2 (Human Plasma) (converted)
Procedure: as §7

[17] = HCT116, hypoxia, read-out: IC50 (Hypoxia)
[18] = HCT116, normoxia, read-out: IC50 (Normoxia)
[19] = H460, hypoxia, read-out: IC50 (Hypoxia)
[20] = H460, normoxia, read-out: IC50 (Normoxia)
[21] = HCT116, HCR = normoxic IC50/hypoxic IC50
[22] = H460, HCR = normoxic IC50/hypoxic IC50

Structure (SMILES) | HCR (Hypoxia Cytotoxicity Ratio) [2] | IC50 [2, 17] | IC50 [2, 18] | Permeability (Papp) [3] | fraction unbound [5] | HCR (Hypoxia Cytotoxicity Ratio) [7] | IC50 [7, 19] | IC50 [7, 20] | logD [9] | solubility [10] | Kel (elimination rate constant) ([11]; mouse, 2 μM) | half-life at 2 μM ([11]; mouse, microsomes) | IC50 ([1]; MCF7, read-out: IC50 MCF7) | HCR (Hypoxia Cytotoxicity Ratio) [2, 21] | IC50 ([4]; SW480, read-out: IC50 SW480) | IC50 [6] | HCR (Hypoxia Cytotoxicity Ratio) [7, 22] | IC50 ([13]; HCT-116, read-out: IC50 HCT116) | IC50 ([14]; MRC5, read-out: IC50 MRC5) | IC50 ([8]; HEK293, read-out: IC50 HEK293) | other results
COc1ccc2c3c(c4cc(OC)c(OC)cc4c2c1)C[C@H]1CCCN1C3 [(R)-Antofine, (R)-antofine] | 0.4 | 16.7 ± 9 nM | 23.9 ± 7 nM | −5.6 ± 0.58 Log [10^−6 cm/s] | 0.019 | 0.6 | 25.4 ± 9 nM | 29.2 ± 12 nM | 3.68 ± 0.03 | 27 ± 2 µM (≈ 9.81 µg/mL) | 0.002 ± 0 min⁻¹ | 1.12 ± 0.035 h |  |  |  |  |  |  |  |  | IC50 ([1]; MCF7, normoxia, read-out: IC50 MCF7): 2 nM; IC50 ([4]; SW480, normoxia, read-out: IC50 SW480): 9 ± 2 nM; IC50 ([6]; normoxia): 6 ± 1 nM; IC50 ([8]; HEK293, normoxia, read-out: IC50 HEK293): 30 ± 43 nM; IC50 ([12]; CHO-K1, normoxia, read-out: IC50 CHO-K1): 33 ± 50 nM; IC50 ([13]; HCT-116, normoxia, read-out: IC50 HCT116): 2 nM; IC50 ([14]; MRC5, normoxia, read-out: IC50 MRC5): 6 ± 2 nM
COc1cc2c3c(c4cc(OC)c(OC)cc4c2cc1OC)CN1CCC[C@@H]1C3 [(R)-Tylophorine] |  | 56.4 ± 35 nM | 1710 ± 965 nM |  |  |  | 161 ± 77 nM | 175 ± 78 nM |  |  |  |  | 101 ± 88 nM | 0.6 | 1150 ± 244 nM | 338 ± 61 nM | 1.1 | 440 ± 36 nM | 95 ± 6 nM |  | 
COc1cc2c3c(c4cc(OC)c(OC)cc4c2cc1OC)CN1CCC[C@H]1C3 [(S)-Tylophorine] |  | 50.1 ± 18 nM | 35.1 ± 15 nM | −5.4 ± 0.17 Log [10^−6 cm/s] | 0.061 |  | 102 ± 32 nM | 108 ± 28 nM | 3.14 ± 0.02 | 2 µM (≈ 0.787 µg/mL) |  |  | 62 ± 13 nM | 0.5 | 69 ± 20 nM | 202 ± 3 nM | 1.1 | 85 ± 6 nM | 27 ± 2 nM | 16 ± 26 nM | half-life at 2 μM ([11]; microsomes): 2.12 ± 0.05 h; IC50 ([12]; CHO-K1, read-out: IC50 CHO-K1): 35 ± 42 nM
CN(C)CCCN1c2ccccc2Sc2ccc(Cl)cc21 [Chlorpromazine] |  |  |  | −5.4 ± 0.13 Log [10^−6 cm/s] |  |  |  |  |  |  |  |  |  |  |  |  |  |  |  |  | 
CN1CCN(C2=Nc3cc(Cl)ccc3Nc3ccccc32)CC1 [Clozapine] |  |  |  | −5.1 ± 0.12 Log [10^−6 cm/s] |  |  |  |  |  |  |  |  |  |  |  |  |  |  |  |  | 
COc1ccc2c3c(c4cc(OC)c(OC)cc4c2c1)C[C@H]1CCC[N+]1(Cc1c([N+](=O)[O-])ncn1C)C3.[Br-] (stereo partly drawn) [Compound 5a, (13aR)-2,3,6-trimethoxy-10-((1-methyl-4-nitro-1H-imidazol-5-yl)methyl)-10,11,12,13,13a,14-hexahydro-9H-dibenzo[f,h]pyrrolo[1,2-b]isoquinolin-10-ium bromide] | 8.8 | 425 ± 51 nM | […] | […] | 0.13 | 26 | 618 ± 44 nM | 15800 nM | […] | 154 µM | […] | […] | 1530 ± 144 nM |  | 1350 ± 0.126 nM | 2030 ± 267 nM |  | 1040 ± 21 nM | 327 ± 147 nM | 5080 ± 519 nM | DR (Deactivation Ratio) ([2]; HCT116, normoxia, DR = IC50 (prodrug)/IC50 (parent drug)): […]; DR (Deactivation Ratio) ([7]; H460, normoxia, DR = IC50 (prodrug)/IC50 (parent drug)): […]; half-life at 1 μM [15]: […]; metabolized into the parent drug ([11]; mouse, microsomes, 2 μM): […]; IC50 ([12]; CHO-K1, read-out: IC50 CHO-K1): […]; half-life at 1 μM [16]: 145 ± 4.7 h

From article PMC8199124, “Design, Synthesis and In-Vitro Biological Evaluation of Antofine and Tylophorine Prodrugs as Hypoxia-Targeted Anticancer Agents” (Molecules, 2021)
